The test system of this assay is IRE1-XBP1s (HEK293 T-REx cells stably expressing the XBP1-RLuc splicing reporter). Nature of the assay: IRE1-XBP1s activation Assay (XBP1-RLuc splicing reporter, luminescence relative to thapsigargin, with or without IRE1 inhibitor 4μ8C). The format is cell-based. The following applies: 18 h, compound 10 μM, luminescence as percentage signal relative to thapsigargin (Tg) (500 nM, 18 h). On the procedure:
IRE1-XBP1s activation Assay: HEK293 T-REx cells stably expressing the XBP1-RLuc splicing reporter were treated with an IRE1-XBP1s activator provided herein (10 μM) in the presence or absence of the IRE1 active site inhibitor 4μ8C (32 μM) for 18 h. Luminescence was shown as the percentage signal relative to thapsigargin (Tg) (500 nM, 18 h).
The molecule `O=C(Nc1cnn(CC(=O)N2CCC[C@H](Oc3ccc(C(F)(F)F)cn3)C2)c1)[C@H]1COc2ccccc2O1` [Compound 188, (R)—N-(1-(2-oxo-2-((S)-3-((5-(trifluoromethyl)pyridin-2-yl)oxy)piperidin-1-yl)ethyl)-1H-pyrazol-4-yl)-2,3-dihydrobenzo[b][1, 4]dioxine-2-carboxamide] displayed an activation at 10 µM below 30%.
Turning to `O=C(Nc1cnn(CC(=O)N2CCC[C@H](Oc3ccc(C(F)(F)F)cn3)C2)c1)[C@@H]1COc2ccccc2O1` [Compound 189], the activation at 10 µM was below 30%.
`CN(CCOc1ccc(C(F)(F)F)cn1)C(=O)Cn1cc(NC(=O)C2CNc3ccccc3O2)cn1` (stereo not shown) [Compound 191]: the activation at 10 µM is below 30%.
For `CN(CCOc1ccc(C(F)(F)F)cn1)C(=O)Cn1cc(NC(=O)[C@H]2COc3ccccc3O2)cn1` [Compound 192] the value was 30 to 50%; for `Cc1ccc(OC2CCC23CN(C(=O)Cn2cc(NC(=O)C4CNc5ccccc5O4)cn2)C3)cc1` (stereo not shown) [Compound 193], below 30%; for `Cc1ccc(OC2CCC23CCN(C(=O)Cn2cc(NC(=O)CCOc4cccc(C)n4)cn2)C3)cc1` (stereo not shown) [Compound 195, 3-((6-methylpyridin-2-yl)oxy)-N-(1-(2-oxo-2-(1-(p-tolyloxy)-6-azaspiro[3.4]octan-6-yl)ethyl)-1H-pyrazol-4-yl)propanamide], at least 50%.
For `Cc1ccc(OC2CCCC23CN(C(=O)Cn2cc(NC(=O)CCOc4cccc(C)n4)cn2)C3)cc1` (stereo not shown) [Compound 196] the value was at least 50%; for `Cc1ccc(OC2CCC23CN(C(=O)Cn2cc(NC(=O)C4COc5ccccc5O4)cn2)C3)cc1` (stereo not shown) [Compound 197], below 30%.
To `Cc1ccc(OC2CCCC23CN(C(=O)Cn2cc(NC(=O)C4CNc5ccccc5O4)cn2)C3)cc1` (stereo not shown) [Compound 198, N-(1-(2-oxo-2-(5-(p-tolyloxy)-2-azaspiro[3.4]octan-2-yl)ethyl)-1H-pyrazol-4-yl)-3,4-dihydro-2H-benzo[b][1, 4]oxazine-2-carboxamide] belongs below 30%; to `Cc1ccc(OC2CCCC23CN(C(=O)Cn2cc(NC(=O)C4COc5ccccc5O4)cn2)C3)cc1` (stereo not shown) [Compound 199], below 30%; to `[2H]C([2H])([2H])c1ccc(OCCN(C)C(=O)Cn2cc(NC(=O)C3COc4ccccc4O3)cn2)cc1` (stereo not shown) [Compound 200], at least 50%.
For `[2H]C([2H])([2H])c1ccc(OCCN(C)C(=O)Cn2cc(NC(=O)C3CNc4ccccc4O3)cn2)cc1` (stereo not shown) [Compound 201], the activation at 10 µM is at least 50%.
For `Cc1ccc(OCCN(C)C(=O)Cn2cc(NC(=O)[C@H]3CCc4ccccc4O3)cn2)cc1` [Compound 202] the value was 30 to 50%; for `Cc1ccc(OCCN(C)C(=O)Cn2cc(NC(=O)C3CNCC3Nc3ccnc(F)n3)cn2)cc1` (stereo not shown) [Compound 203], below 30%.
The molecule `Cc1ccc(OCCN(C)C(=O)Cn2cc(N(C)C(=O)C3=C(c4ccccc4)CCCC3)cn2)cc1` [Compound 205] showed an activation at 10 µM below 30%.
For `Cc1ccc(OCCN(C)C(=O)Cn2cc(NC(=O)OC3CCCNC3)cn2)cc1` (stereo not shown) [Compound 206] the value was below 30%.
